Measured values: patent publication US10201516B2 (The Regents of the University of California, priority 2014, dated 2019)

Assays:
[1] = tested on: Rasless MEFs; experiment: Cell viability of rescued Rasless MEFs; format: cell-based, mouse
Description: The dead cells were removed, and MTS assay (Promega, G5430) was performed for determining the percentage of viable cells, according to the manufacturer's instructions. DMSO was used as vehicle control and for normalization.

[2] = tested on: Ras^V12-transformed NIH/3T3 cells; experiment: Tumor initiation of Ras^V12-transformed NIH/3T3 cells in nude mice; format: in vivo, mouse
Description: All experiments were approved by the IACUC of the University of California, San Francisco. Ras^V12-transformed NIH/3T3 cells were subcutaneously injected in female nude mice (Nu/Nu) at 50, 100 or 1,000 cells per flank. Palpable tumors were measured twice a week. The animals were divided into five mice per group. Pancreatic adenocarcinoma cells derived from Braf^CA and Kras^LSL-G12D mice are provided by Eric Collisson, and genotyped as described (Collison et al., Nat Med 17:500-503, 2011; Dankort et al., Genes Dev 21:379-384, 2007; Hingorani et al., Cancer Cell 4:[…], 2003). One hundred cells were orthotopically implanted in 6- to 8-week-old FVB/n mice in 20 μL 50% Matrigel using a 28.5-gauge needle. Mice were monitored for one month and were euthanized when distressed.
The drug was daily administrated into either NOD-SCID or athymic nude mice by oral gavages (OG) at 1 mg/kg or intraperitoneal (I.P) injection at 0.5 mg/kg. 10% DMSO, 10% cremophor, and 80% saline solutions were used as the solvent and vehicle control.

CC(=O)O[C@@]12C[C@@H](C)[C@@]3(O)C(C=C(CO)C[C@]4(O)C(=O)C(C)=C[C@@H]34)[C@@H]1C2(C)C (some centres unmarked) [prostratin, 12-deoxyphorbol-13-acetate]
cell viability response ([1]; Rasless MEFs rescued with H-Ras^V12 (FIG. 13C)): minimal responses | cell viability ([1]; Rasless MEFs rescued with K-Ras(4B)^V12 (FIG. 13C)): decreased cell viability | tumorigenicity of K-Ras^V12-transformed cells ([2]; administered orally or intra-peritoneally, nude mice (FIG. 13D)): dramatically suppressed the tumorigenicity | size of subcutaneous tumor derived from K-Ras^V12-NIH/3T3 cells ([2]; vs vehicle control (FIG. 13D-E)): much smaller | phosphor-CaMKii in tumor derived from K-Ras^V12-NIH/3T3 cells ([2]; vs vehicle control (FIG. 13E)): greatly increased phosphor-CaMKii
